Results reported in a melting point compilation (Tetko et al.; mined from patent text by program, amines drawn as free bases though some values may be those of a salt).

melting point	SMILES
75 °C	O=C(O)CCCc1ccc(CNC(=O)C2Cc3ccccc3N2S(=O)(=O)c2ccc(-c3cccc(C(F)(F)F)c3)cc2)cc1 (stereo unspecified)
85 to 86 °C	CCC1(CC)c2ccccc2C(CC)(CC)N1OC(COC(C)(C)C)c1ccccc1 (stereo unspecified)
> 350 °C	O=c1[nH]nc2c3cc(F)ccc3[nH]c(=O)n12
112 to 114 °C	CC1=C(O)C(=O)C(C)(C(C)O)O1 (stereo unspecified)
109 °C	CCCC1CCC(O)CC1 (stereo unspecified)
136 to 137 °C	O=C(Nc1c([N+](=O)[O-])cnn1-c1c(Cl)cc(C(F)(F)F)c(Cl)c1Cl)C(F)(F)F
190 to 191 °C	Cn1c(=O)c(-c2ccccc2Cl)cc2cnc(N[C@H]3CC[C@H](N)CC3)nc21
155 to 156 °C	CCOC(=O)c1cnc(C)nc1NCc1ccc(-c2ccccc2-c2nnnn2C(c2ccccc2)(c2ccccc2)c2ccccc2)cc1
182 to 183 °C	Cc1ccccc1CC(=NC#N)NC(NC(=O)Cc1ccccc1)C(C)(C)C (stereo unspecified)
176 to 178 °C	Nc1cccc(CN2C(=O)[C@H]3CCC[C@H]3Nc3ccccc32)c1 (relative stereo)
233 to 235 °C	CCOC(=O)c1csc(NC(=O)c2cc(C(C)(C)C)c(O)c(C(C)(C)C)c2)n1
133 to 135 °C	CNC(NCCSCc1[nH]cnc1C)=C(C#N)C#N
198 °C	CSc1cccc2c1CC(=O)N2
197 to 205 °C	Cn1cc(C(=O)NCc2ccc(Cl)cc2)c(=O)c2ccoc21
167 to 171 °C	COC(=O)c1cccc(CN2CCOc3ccc(N)cc32)c1
220 °C	CCCCc1nc2cc(C)c(C)cc2n1Cc1ccc(C(=O)O)cc1
103 to 105 °C	Cc1ccc([N+](=O)[O-])cc1Nc1ccc(C(F)(F)F)cn1
25 to 28 °C	CCCCCCCCCCCCCCCCSCC(C)(C)CO
158 to 159 °C	OC1CSC(Oc2cc(-c3ccc(F)nc3)cnc2F)C(O)C1O (stereo unspecified)
192 to 194 °C	COc1cc2c(cc1-n1cccc1)C(Nc1ccc(F)c(Cl)c1)=C(C#N)CN2

melting point	SMILES
163 to 165 °C	O=C(c1ccc(O)cc1)c1c(-c2ccccc2)sc2ccccc12
109 °C	C=CCOc1cccc(C(=O)c2ccccc2C(=O)O)c1
278 to 279 °C	CNC1=C(C#N)C(c2ccc(Cl)c([N+](=O)[O-])c2)c2ccc3ccccc3c2O1 (stereo unspecified)
115 to 117 °C	CCc1cnc2c(c1)C(=O)N(C(C)(C(N)=O)C(C)C)C2=O (stereo unspecified)
200 °C	COC(C)=CC(=O)Nc1cccc(OC(=O)NC2CCCCC2)c1
146 to 149 °C	CN(C(N)=O)C1Nc2ccc(Cl)cc2Oc2ccccc21 (stereo unspecified)
246 to 248 °C	O=C1CCCc2cc(=O)[nH]cc21
> 245 °C	CCCn1c(=S)[nH]c(=S)c2[nH]c(C3CC3)nc21
227 to 230 °C	CC(=O)c1cc(C(C)=O)c(O)cc1N
170 °C	Cc1cc(S(=O)(=O)N(CC(N)=O)c2ccc(Cl)cc2Cc2cc(F)ccc2F)c(C)cc1Cl
146 to 147 °C	COc1ccc(CSc2nnc(-c3ccc4nccn4c3)o2)cc1C(F)(F)F
168 °C	Cc1ccc(S(=O)(=O)Oc2ccc(S(=O)(=O)c3c(-c4ccccc4)cn4ccccc34)cc2)cc1
35 to 37 °C	O=Cc1c(F)cccc1Br
360 °C	CC1(C)OC(=C(C#N)C#N)C(C#N)=C1/C=C/c1ccc(N)cc1
160 to 161 °C	CC(C)(C)C1(O)OC(=O)c2ccc(Cl)cc21 (stereo unspecified)
218 to 220 °C	CCOc1ccccc1-c1ccc(C(N)=O)c(=O)[nH]1
103 °C	CC(=O)On1c(C(F)(F)F)nc2ncc(Cl)cc21
150 to 151 °C	N[C@@H]1C(=O)N[C@@H]1COC(=O)c1ccccc1 (relative stereo)
92.5 to 96.5 °C	CCCCCCCC[C@H](C)C(=O)Oc1ccc(C(=O)O)cc1
178 to 179 °C	COc1ccc2c(c1)c(Cc1nc(-c3ccc(Br)cc3)cs1)c(C)n2Cc1ccc(Br)cc1

Further lines, the molecule ahead of its results:

SMILES	melting point
CCc1nc2c(C)cc(C)nc2n1Cc1ccc(-c2ccccc2-c2c(N(C)C)c(=O)c2=O)cc1	140 to 142 °C
COc1cc([N+](=O)[O-])ccc1-c1ccc(-c2ccc([N+](=O)[O-])cc2OC)o1	308 to 310 °C
CCOC(=O)Cc1sc(SCc2ccc(C(=O)OC)s2)nc1C	49 to 51 °C
COC(=O)CNC(=O)c1ncccc1S	178 to 179 °C
COc1cc2ccc(-c3ccc(C(C)C)cc3)cc2oc1=O	127 °C
FC(F)(F)c1ccc(CN2CC3(COc4cc5c(cc43)CCO5)c3c(-c4cncnc4)cccc32)o1 (stereo unspecified)	263 to 266 °C
COc1ccc(CCN2CCC(C(O)c3ccc(NS(C)(=O)=O)cc3)CC2)cc1 (stereo unspecified)	40 to 48 °C
COc1ccc(N2CCN(c3c(C)c(C)c4c(c3C)C(=O)C(C)(C)O4)CC2)cc1	144 to 146 °C
O=C1C2=C(SCCO2)C(O)N1c1ccc(Cl)cn1 (stereo unspecified)	202 °C
COC(=O)c1c(C)n(-c2cc(N)c(C)cc2C)cc(Cl)c1=O	215 °C
COc1ccc(Sc2cccc(C(=O)O)c2)cc1	121 to 123 °C
CC(C)c1ccc(S(=O)(=O)n2c(Cc3ccc(C(=O)O)c(O)c3)cc3cc(C(F)(F)F)ccc32)cc1	150 °C
Cc1ncc(OC(=O)C2(C3CCCCC3)CCCCC2)cn1	52 to 55 °C
CN1CCN(c2cccc3c2C[C@H](NC(=O)c2ccc(C(=O)c4ccccc4)cc2)CC3)CC1	194 to 195 °C
CC1(C2CCCC2)Cc2cc(O)c(Cl)c(Cl)c2C1=O (stereo unspecified)	190 to 194 °C
CN(C)C=Nc1c(Cl)cc(N=Cc2ccc(-c3ccccc3)cc2)cc1Cl	108 to 110 °C

SMILES	melting point
O=C(O)C1CCCc2c1ccc1c2OCO1 (stereo unspecified)	225 to 257 °C
C[C@H](CNC(=O)c1c(Cl)ccc2nc(N3CCC(C(=O)O)CC3)ccc12)c1ccccc1	150 to 153 °C
CC(C)(Cc1ccccc1)C(NC(=O)CCc1ccccc1)Nc1c(Nc2cccnc2)c(=O)c1=O (stereo unspecified)	221 to 223 °C
CC(C)C[C@H](NC(=O)OCC1CCCCC1)C(=O)N[C@@H](CC(C)C)C(=O)N[C@@H](C(C)C)[C@@H](O)c1c(-c2ccccc2)c1=O	109 to 116 °C
Cn1ccc2cc(N3Cc4c(cccc4[N+](=O)[O-])C3=O)ccc21	267 to 271 °C
C1=C(c2cccc(CNCCOc3cccc4c3OCC4)c2)CCC1	118 °C
CN1Cc2ccccc2CC1c1ccc(C(C)(C)C)cc1 (stereo unspecified)	53 to 54.5 °C
ClCCCCCOc1ccc(Br)c(CCOCc2ccccc2)c1	54 to 55 °C
FC(F)(F)c1ccc(N2CCNCC2)nc1	45 to 47 °C
CC(CO)N1C(=O)N(c2ccc(Cl)cc2)CC1C (stereo unspecified)	108 to 110 °C
COC(=O)c1cc(S(=O)(=O)NC(=O)Nc2nc(C)cc(C)n2)c[nH]1	202 to 204 °C
COc1cc(Nc2ccnc(Nc3cc(OC)c(OC)c(OC)c3)n2)cc(OC)c1	180 °C
O=C1CCCN1Nc1ccncc1	177 to 180 °C
CCS(=O)(=O)CCC(=O)NNC(=O)N1Cc2ccccc2Oc2ccc(C#N)cc21	188 to 190 °C
CCc1c(Sc2cc(C)cc(C)c2)n(C/C=C/CO)c(=O)[nH]c1=O	157 to 158 °C
